The text below walks through data of patent US6723702B2, “Use of relaxin treat diseases related to vasoconstriction” (RAS Medical, Inc., priority 2000, dated 2004).

Data set [1] concerns wound chambers at shoulder and hip of Sprague Dawley rats. The data set is described as follows: Hunt-Schilling wound chamber assay. The class given is in vivo, rat. As for the experimental part: The effect of rhRLX on normal and ischemic wound healing in two rat models of dermal wound healing was evaluated. RhRLX in vehicle, or vehicle alone, was delivered by subcutaneous infusion to Sprague-Dawley rats using an implanted ALZET7 osmotic pump (Alza Corp., Mountain View, Calif.).
In the first model, Hunt-Schilling wound chambers were implanted subcutaneously at either the shoulder or the hip region. The fluid and cells contained within each wound chamber were collected on day 18 for analysis of VEGF protein and mRNA. VEGF protein was detected and measured using ELISA. VEGF-encoding mRNA was detected using Northern blotting and RT-PCR. The granulation tissue within the wound chambers was collected for histological and immunohistochemical evaluation.
Stainless steel mesh cylinders (0.9 cm×3.4 cm) fitted with silicone rubber plugs at both ends were autoclaved prior to implantation. Chambers were implanted into two separate subcutaneous pockets (“Site 1” on the shoulder and “Site 2” on the hip) on the backs of Sprague Dawley rats. At the same time, osmotic pumps were implanted in a subcutaneous pocket at site distal to that of the chambers. At 18 days, chambers were carefully dissected free from the interstitium, and fluid aspirated using an 18-gauge needle through the silicone plugs at the end of the cylinder, and immediately placed on ice. Cells suspended within the fluid were pelleted by centrifugation, and cells and fluid were separated. Total RNA was harvested using RNAzol (Tel-Test, Inc., Friendswood, Tex.), according to vendor instructions. Fluid was immediately frozen, and assayed at a later date for cyokine content.
Primers were purchased from BioSource International (Camarillo, Calif.) and visualized using agarose gel electrophoresis.
Sense and anti-sense primers for use with the real time RT-PCR, ABI Prism 7700 Sequence Detection System were designed using the PrimerExpress version 1.0 software (PE Applied Biosystems, Inc.). Rat and human specific primer/probe sets included those for GAPDH, bFGF, the VEGF 164 aa or 120 aa rat isoforms, and their respective human homologues (VEGF 165 and VEGF 121). ABI PRISM specific primer/probes were purchased from BioSource International Inc. or PE Applied Biosystems.
RT-PCR was performed on 150 ng for the analysis of VEGF and bFGF mRNA expression. Ten nanograms of total RNA was used for GAPDH niRNA expression. PCR products using the ABI Prism 7700 Sequence Detection system (all reactions in a total volume of […]) were generated using primer/probe annealing temperatures of 58° C. and 35 cycles of PCR. Data were analyzed using Sequence Detector v1.6.3 software (Applied Biosystems/PE).
Relaxin was administered systemically to rats using osmotic pumps. In order to assess relaxin's ability to modulate expression of angiogenic cytokines at wound sites, Hunt-Schilling wound chambers were used for fluid and inflammatory cell collection. Wound chambers were implanted subcutaneously at two sites, the shoulder and the hip, distal to the site of pump implantation. Fluid and cells were collected at a point (18 days) during the healing time course when endogenous angiogenic activity and the cellular source, macrophages, were known to be present. Total RNA was harvested from wound cells and analyzed by RT-PCR for VEGF transcripts. When analyzed on an agarose gel, there were two distinct bands comprising the amplified products, corresponding to the 121aa and 164aa, isoforms of VEGF.
To assess the effect of rhRlx treatment on granulation tissue formation in normal and ischemic wounds, Hunt-Schilling wound chambers were implanted subcutaneously in either the shoulder or the more hypoxic hip region of female Sprague Dawley rats (Charles River Laboratories, Mass.). The wound chambers, fine stainless steel mesh cylinders sealed with medical grade silicone, provide a defined dead space for granulation tissue formation. […]

For data set [2], the system named is rat aortic endothelial cells. The data set is described as follows: 3H-thymidine uptake, rat endothelial cells. In kind it is cell-based. The following applies: serum-free medium. As for the experimental part: Endothelial cells were derived from explant cultures of human neonatal foreskin and rat aorta. Primary human endothelial cells from umbilical vein, aorta, and lung were purchased from Clonetics-BioWhittaker Corporation (San Diego, Calif.) and cultured according to vendor instructions. ^3H-thymidine uptake was performed, as previously described, in serum-free medium. Unemori et al. (1994) Exp. Cell Res. 21:166-171.
Relaxin was then assayed for the ability to induce proliferation of endothelial cells directly. Relaxin's potential mitogenic effect was tested on human primary umbilical vein, aortic, foreskin, and pulmonary endothelial cells, as well as rat aortic endothelial cells. […] Alterations in other aspects of endothelial cell phenotype that are believed to correlate with angiogenesis were also tested. Relaxin had no effect on collagen expression, judged by SDS-PAGE of ^3H-proline-labeled cellular proteins; or metalloproteinase or tissue inhibitor of metalloproteinase-1 secretion, assessed by gelatin zymography. […] Therefore, relaxin had no apparent effect directly on endothelial cells.

The nature of data set [3]: Relaxin ELISA in serum (Example 5). In kind it is in vivo, rat. The conditions noted are these: day 10. From the text: The pulmonary artery trunk, right and left extrapulmonary branches were removed en bloc, cleaned of surrounding tissue, and weighed. The left lung was and excised and the entire hilar artery dissected from parenchyma and weighed (Tozzi et al. (1994) Am. J. Respir. Crit. Care Med. 149:1316-1326). Segments were hydrolyzed, and total hydroxyproline and protein determined (Poiani et al. (1990) Circ. Res. 66:968-978). Approximately 3 cc of whole blood was centrifuged, serum aspirated, and sample frozen at −20° C. for determination of rRlx levels by ELISA assay.
Levels of relaxin in serum were measured in a quantitative sandwich immunoassay, as previously described (Unemori et al. (1996) J. Clin. Invest. 98:2739-2745).

[4] abbreviates: wound chamber cells, both shoulder and hip region, day 18.
[5] abbreviates: wound chambers in the hip region.

As to “rhRLX: recombinant human relaxin, identical in amino acid sequence to the product of the human H2 gene; A chain of 24, B chain of 29 amino acids”, the “expression of VEGF 164 mRNA” value in data set [1] (anteriorly placed (shoulder) wound chamber, real-time RT-PCR) is on record as “upregulated”. For the same substance, the “bFGF transcripts in wound cells” value in data set [1] (both shoulder and hip chambers) is on record as “significant upregulation”. Moreover, in data set [1] (both sites, real-time RT-PCR), the “VEGF 120 mRNA” value was “trends toward increases”. In addition, the “expression of VEGF 164 mRNA” value in data set [1] (chamber placed on the hip, real-time RT-PCR) is listed as “trend toward an increase”. Moreover, in data set [1] (hip region (Example 7)), the “bFGF, and VEGF expression in wounds cells” value is reported as “increase”; the “new blood vessel formation” value is recorded as “increase”. Also, the “Expression of both VEGF isoforms, RT-PCR on agarose gel” value in data set [1] (wound cells, 18 days) is on record as “appeared to be enhanced”. For the same substance, in data set [1] (setting [4]), the “VEGF mRNA increase compared to vehicle-treated rats” value was determined as 31% and the “bFGF mRNA increase compared to vehicle-treated rats” value was determined as 59%. Also, the “weight of granulation tissue” value in data set [1] (wound chambers at the hip region, day 18 (Example 7)) was “significant increase”. In data set [1] (setting [5]), the “amount of extracellular matrix deposition” value is on record as “increased”, the “amount of granulation tissue” value came to 255 mg and the number of capillaries result was “increased”. In addition, the tissue weight in data set [1] (wound chambers in the shoulder region) is listed as 283 mg. The 3H-thymidine uptake entry in data set [2] is “did not alter”. In data set [3] (1 mg-air (low rhRlx-air)), this substance displayed a rRlx serum levels of 2.9 ± 1.0 ng/mL. The substance further had a rRlx serum levels in data set [3] (1 mg-hyp (low rhRlx-hyp)) of 3.2 ± 0.4 ng/mL. For the same substance, the rRlx serum levels in data set [3] (5 mg-air (hi rhRlx-air)) was 9.9 ± 2.8 ng/mL. Moreover, the rRlx serum levels in data set [3] (5 mg-hyp (hi rhRlx-hyp)) is 11.5 ± 2.5 ng/mL.
